Tested on: full thickness human skin homogenate
Assay: In vitro NO generation by NO specific Clarke-type electrode, UVA-irradiated skin homogenate
Format: biochemical
Conditions: UVA radiation, nitrite source
From the text: Electrochemical sensors are widely used for the measurement of NO generation and Clark-type electrodes are most widely used as they are commercially available and easy to handle. The principle of these sensors is that NO diffuses through a gas-permeable membrane and a thin film of electrolyte, followed by oxidation on the working electrode. This oxidation creates a current that is proportional to the concentration of NO outside the membrane. The advantage of electrochemical NO sensors is the ability to directly detect NO concentration in solution or in biological samples with a low nanomolar detection limit. This makes NO electrodes an excellent tool for studying NO generation especially in biological samples.
We used the Clarke electrode technique to investigate the mechanism of UVA light dependent NO generation in skin and cosmetically acceptable components which could facilitate augment the endogenous process.
A 10% (g/mL) full thickness human skin homogenate in phosphate buffer was prepared using a glass/glass homogenizer. The homogenate was preheated at 56° C. for 1 hour to inactivate enzymatic generation of NO.
200 ul of homogenate was placed in a quartz cuvette in a thermostatically controlled environment and irradiated with broadband (320-400 nm) UVA radiation. Baseline signals were recorded. […]

Row | SMILES | sustained UV induced NO generation from nitrite
1 | N[C@@H](CSSC[C@H](N)C(=O)O)C(=O)O [Cystine] | able to participate in sustained NO generation
2 | O=C(O)CCCCC1CCSS1 (centres unmarked) [Lipoic acid (Oxidised), Lipoic acid] | able to participate in sustained NO generation

From US11951202B2, “Compounds and compositions for use” (DR WELLER LIMITED, priority 2016, dated 2024)
